What was measured:
GLP-1R [1] = target: T1, GLP-1R (Homo sapiens, UniProt P43220); assay: GLP-1R agonist cAMP stimulation assay (HTRF cAMP); format: cell-based; settings: HEK293 cell line expressing GLP-1 target; HTRF cAMP agonist mode, 30 min at RT
Procedure, shortened: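 GLP-1R-expressing cells were stimulated with 10-point, 3-fold compound dilutions for 30 min at RT; HTRF cAMP detection reagents were then added for 60 min and the 665/615 ratio read. Ratios were converted to cAMP via a standard curve and % activity scaled between DMSO and top-concentration GLP-1(7-37) reference wells.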

GLP-1R [2] = target: T1, GLP-1R; assay: Tag-lite binding assay (competition with GLP-1 receptors red agonist); settings: for IC50: HEK293 GLP-1 cells labeled with SNAP-Lumi4-Tb, red agonist 4.917 nM, 23° C., 2 h; for Ki: calculated from sample IC50 and red agonist Kd
Experimental: B. Tag-Lite Binding Assay
The cell line was constructed by WuXi.
10) Dispense cells into cell plate (1.8 M cells/well in 2 ml medium of 6-well plate, total 4 wells).
Second Day: Tag-Lite Binding Assay
3) The cell culture medium is removed from the 6-well plate and then 1 mL of Tag-lite SNAP-Lumi4-Tb diluted in Tag-lite labeling medium are added gently on the cells.
7) The testing compounds and reference compound are serially diluted with 3-fold, 10 points using Echo, then transfer 100 nL compounds to the assay plate.
8) Add the labeled cells to each well according to the plate map, 10000 cells/10 uL/well. Centrifuge the plate at 1000 rpm for 1 min.
9) Incubate the plate at 23° C., 30 min.
10) Add 50 nL of red agonist (final conc.: 4.917 nM) to destination plate using Echo.
11) Incubate the plate at 23° C. for 2 h.
12) Read the plate on an HTRF® compatible reader (at 665 nm and 620 nm).
% Inhibition=100%−(Ratio−LC)/(HC−LC)*100%
HC: The average ratio of adding DMSO wells
LC: The average ratio of adding the top concentration of reference compounds wells
b) The “log (inhibitor) vs. response—Variable slope” model in GraphPad Prism 5.0 was used to fit the dose-response curve of each sample. The sample concentration (x) and its corresponding % Inhibition data (y) were substituted into the model. The sample concentration (abscissa) was x=log(x) transformed. The transformed xy was used as the sample curve to obtain the IC50.
c) Calculate the sample Ki according to the sample IC50 and red agonist Kd. S in the formula is the actual used concentration of red agonist.

T1 sequence (P43220 24-463): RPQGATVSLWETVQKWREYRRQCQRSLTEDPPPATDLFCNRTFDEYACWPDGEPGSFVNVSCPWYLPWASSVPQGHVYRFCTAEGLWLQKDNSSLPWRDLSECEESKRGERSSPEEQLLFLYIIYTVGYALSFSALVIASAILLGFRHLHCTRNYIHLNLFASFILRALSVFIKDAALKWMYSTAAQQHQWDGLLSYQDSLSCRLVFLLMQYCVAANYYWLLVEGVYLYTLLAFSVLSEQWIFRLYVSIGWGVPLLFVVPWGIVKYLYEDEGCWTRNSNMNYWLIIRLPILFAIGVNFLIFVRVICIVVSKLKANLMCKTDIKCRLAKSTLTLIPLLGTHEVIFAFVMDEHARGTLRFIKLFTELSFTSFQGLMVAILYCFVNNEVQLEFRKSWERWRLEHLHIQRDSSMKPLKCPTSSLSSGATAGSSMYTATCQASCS

| Structure (SMILES) | EC50 (GLP-1R [1]) [nM] | IC50 (GLP-1R [2]) [nM] | Ki (GLP-1R [2]) [nM] |
| --- | --- | --- | --- |
| Cc1cc(NC(=O)c2ccc3c(c2)nc(CN2CCC(c4cccc(OCc5ccc(Cl)cc5F)n4)CC2)n3C[C@@H]2CCO2)cc2cn[nH]c12 [Compound 80] | 2.05 | 2320 | 1160 |
| CCn1cncc1Cn1c(Cc2cc(F)c(-c3cccc(OCc4ccc(Cl)cc4F)n3)cc2F)nc2cc(NC(=O)c3cc(F)c4[nH]nc(C)c4c3)ccc21 [Compound 414] | 0.57 | 31.7 | 15.6 |
| O=C(Nc1ccc2c(c1)nc(CN1CC=C(c3cccc(OCc4ccc(Cl)cn4)n3)CC1)n2C[C@@H]1CCO1)c1ccc2[nH]c(=O)[nH]c2c1 [Compound 207] | 0.43 | 149 | 82.4 |
| Cc1n[nH]c2c(F)cc(C(=O)Nc3ccc4c(c3)nc(Cc3c(F)cc(-c5cccc6c5O[C@@](C)(c5ccc(Cl)cn5)O6)cc3F)n4CC3CCO3)cc12 (stereo partly drawn) [Compound 386] | 0.15 | 120 | 69.9 |
| Cc1n[nH]c2c(C)cc(C(=O)Nc3ccc4c(c3)nc(CN3CC=C(c5cccc6c5O[C@](C)(c5ccc(Cl)cc5F)O6)CC3)n4CC3CCO3)cc12 (stereo partly drawn) [Compound 385] | 0.61 | 158 | 82.7 |
| Cc1n[nH]c2c(C)cc(NC(=O)c3ccc4c(c3)nc(CN3CC=C(c5cccc(OCc6ccc(C#N)c7cc(Cl)oc67)n5)CC3)n4C[C@@H]3CCO3)cc12 [Compound 354] | 0.21 | 2140 | 1060 |
| Cc1n[nH]c2c(C)cc(NC(=O)c3ccc4c(c3)nc(CN3CCC(c5cccc(OCc6ccc(C#N)cc6F)n5)CC3)n4C[C@@H]3CCO3)cc12 [Compound 127] | 0.15 | 1250 | 744 |
| CCn1cncc1Cn1c(CN2CC=C(c3cccc(OCc4ccc(Cl)cc4F)n3)CC2)nc2cc(NC(=O)c3cc(F)c4[nH]nc(C)c4c3)ccc21 [Compound 408] | 0.21 | 106 | 68.4 |
| Cc1n[nH]c2c(C)cc(NC(=O)c3ccc4nc(CN5CC=C(c6cccc(OCc7ccc(C#N)cc7F)n6)CC5)n(CC5CCO5)c4c3)cc12 (stereo not drawn) [Compound 276] | 0.65 | 2460 | 1010 |
| Cc1n[nH]c2c(F)cc(C(=O)Nc3ccc4c(c3)nc(CN3CC=C(c5cccc(OCc6ccc(Cl)cc6F)n5)CC3)n4C[C@@H]3CCO3)cc12 [Compound 196] | 0.17 | 152 | 87.9 |
| Cc1cc(NC(=O)c2ccc3c(c2)nc(CN2CCC(c4cccc(OCc5ccc(C#N)cc5F)n4)CC2)n3C[C@@H]2CCO2)cc2cn[nH]c12 [Compound 134] | 0.85 | 1840 | 904 |
| Cc1n[nH]c2c(C)cc(NC(=O)c3ccc4c(c3)nc(CN3CC=C(c5cccc(OCc6ccc(Cl)cc6F)n5)CC3)n4C[C@@H]3CCO3)cc12 [Compound 151] | 0.6 | 1050 | 519 |
| Cc1n[nH]c2c(C)cc(NC(=O)c3ccc4c(c3)nc(CN3CCC(c5cccc6c5OC(C)(c5ccc(C#N)cc5F)O6)CC3)n4CC3CCO3)cc12 (stereo not drawn) [Compound 335] | 0.97 | 1110 | 615 |
| Cc1n[nH]c2c(F)cc(C(=O)Nc3ccc4c(c3)nc(Cc3cc(F)c(-c5cccc(OCc6ccc(Cl)cc6F)n5)cc3CO)n4C[C@@H]3CCO3)cc12 [Compound 416] | 0.37 | 54.3 | 29.3 |
| O=C(NCC(=O)N1CC(F)(F)C[C@H]1C(=O)O)c1ccc2c(c1)nc(CN1CCC(c3cccc(OCc4ccc(Cl)cc4F)n3)CC1)n2C[C@@H]1CCO1 [Compound 62] | 0.51 | 2630 | 1320 |
| O=C(Nc1cc(F)c2c(c1)C1(CC1)C(=O)N2)c1ccc2c(c1)nc(CN1CC=C(c3cccc(OCc4ccc(Cl)cc4F)n3)CC1)n2C[C@@H]1CCO1 [Compound 154] | 0.45 | 1580 | 904 |
| O=C(Nc1ccc2[nH]c(=O)[nH]c2c1)c1ccc2c(c1)nc(CN1CC=C(c3cccc(OCc4ccc(Cl)cc4F)n3)CC1)n2C[C@@H]1CCO1 [Compound 147] | 0.68 | 1750 | 841 |
| Cc1n[nH]c2c(C)cc(NC(=O)c3ccc4c(c3)nc(CN3CC=C(c5cccc6c5O[C@@](C)(c5ccc(Cl)cn5)O6)CC3)n4CC3CCO3)cc12 (stereo partly drawn) [Compound 382] | 0.1 | 689 | 342 |

| Structure (SMILES) | EC50 (GLP-1R [1]) [nM] | IC50 (GLP-1R [2]) [nM] | Ki (GLP-1R [2]) [nM] |
| --- | --- | --- | --- |
| Cc1n[nH]c2c(F)cc(NC(=O)c3ccc4c(c3)nc(CN3CCC(c5cccc6c5OC(C)(c5ccc(C#N)cc5F)O6)CC3)n4CC3CCO3)cc12 (stereo not drawn) [Compound 334] | 0.61 | 1210 | 692 |
| Cc1n[nH]c2c(F)cc(C(=O)Nc3ccc4c(c3)nc(Cc3cc(F)c(-c5cccc(OCc6ccc(Cl)cc6F)n5)cc3F)n4C[C@@H]3CCO3)cc12 [Compound 413] | 0.49 | 28 | 14.1 |
| Cc1n[nH]c2c(C)cc(C(=O)Nc3ccc4c(c3)nc(CN3CC=C(c5cccc6c5O[C@@](C)(c5ccc(Cl)cc5F)O6)CC3)n4CC3CCO3)cc12 (stereo partly drawn) [Compound 384] | 0.08 | 110 | 68.3 |
| Cc1n[nH]c2ccc(NC(=O)c3ccc4c(c3)nc(CN3CCC(c5cccc(OCc6ccc(Cl)cc6F)n5)CC3)n4C[C@@H]3CCO3)cc12 [Compound 88] | 4.45 | 1840 | 920 |
| CCn1cncc1Cn1c(Cc2c(F)cc(-c3cccc(OCc4ccc(Cl)cc4F)n3)cc2F)nc2cc(NC(=O)c3cc(F)c4[nH]nc(C)c4c3)ccc21 [Compound 415] | 0.71 | 233 | 117 |
| Cc1n[nH]c2ccc(NC(=O)c3ccc4c(c3)nc(CN3CC=C(c5cccc(OCc6ccc(Cl)cn6)n5)CC3)n4C[C@@H]3CCO3)cc12 [Compound 145] | 0.45 | 1920 | 956 |
| CCn1cncc1Cn1c(Cc2c(F)cc(-c3cccc(OCc4ccc(Cl)cn4)n3)cc2F)nc2cc(NC(=O)c3cc(F)c4[nH]nc(C)c4c3)ccc21 [Compound 407] | 0.16 | 180 | 110 |
| Cc1n[nH]c2c(C)cc(C(=O)Nc3ccc4c(c3)nc(CN3CCC(c5cccc6c5OC(C)(c5ccc(Cl)cc5F)O6)CC3)n4CC3CCO3)cc12 (stereo not drawn) [Compound 341] | 0.31 | 158 | 95.5 |
| O=C(Nc1ccc2c(c1)nc(CN1CCC(c3cccc(OCc4ccc(Cl)cc4F)n3)CC1)n2C[C@@H]1CCO1)c1ccc2[nH]c(=O)[nH]c2c1 [Compound 85] | 0.41 | 143 | 71.7 |
| Cc1n[nH]c2c(C)cc(C(=O)Nc3ccc4c(c3)nc(CN3CC=C(c5cccc(OCc6ccc(Cl)cc6F)n5)CC3)n4C[C@@H]3CCO3)cc12 [Compound 197] | 0.19 | 165 | 84 |
| Cc1n[nH]c2ccc(NC(=O)c3ccc4c(c3)nc(CN3CC=C(c5cccc6c5O[C@@](C)(c5ccc(Cl)cc5F)O6)CC3)n4C[C@@H]3CCO3)cc12 [Compound 5, 2-((4-((S)-2-(4-chloro-2-fluorophenyl)-2-methylbenzo[d][1,3]dioxol-4-yl)-3,6-dihydropyridin-1(2H)-yl)methyl)-N-(3-methyl-1H-indazol-5-yl)-1-(((S)-oxetan-2-yl)methyl)-1H-benzo[d]imidazole-5-carboxamide] | 0.12 | 1700 | 911 |
| O=C(Nc1ccc2[nH]nnc2c1)c1ccc2c(c1)nc(CN1CC=C(c3cccc(OCc4ccc(Cl)cc4F)n3)CC1)n2C[C@@H]1CCO1 [Compound 166] | 0.76 | 2650 | 1320 |
| Cc1n[nH]c2c(C)cc(NC(=O)c3ccc4c(c3)nc(CN3CCC(c5cccc(OCc6ccc(Cl)cc6F)n5)CC3)n4C[C@@H]3CCO3)cc12 [Compound 100] | 0.98 | 1260 | 893 |
| O=C(Nc1ccc2c(c1)nc(CN1CC=C(c3cccc(OCc4ccc(Cl)cc4F)n3)CC1)n2C[C@@H]1CCO1)c1ccc2[nH]c(=O)[nH]c2c1 [Compound 142] | 0.21 | 2010 | 1000 |
| Cc1n[nH]c2c(F)cc(NC(=O)c3ccc4c(c3)nc(CN3CCC(c5cccc(OCc6ccc(Cl)cc6F)n5)CC3)n4C[C@@H]3CCO3)cc12 [Compound 103] | 0.83 | 1550 | 885 |
| Cc1n[nH]c2c(F)cc(C(=O)Nc3ccc4c(c3)nc(Cc3cc(F)c(-c5cccc(OCc6ccc(Cl)cc6F)n5)cc3F)n4C3COC[C@H]3O)cc12 (stereo partly drawn) [Compound 417] | 0.65 | 137 | 69.2 |
| O=C(Nc1ccc2c(c1)nc(CN1CC=C(c3cccc(OCc4ccc(Cl)cc4F)n3)CC1)n2C[C@@H]1CCO1)c1ccc2c(c1)C1(CC1)C(=O)N2 [Compound 203] | 0.24 | 158 | 90.3 |
